In patent publication US8124629B2, “Naphthylacetic acids” (Hoffmann-La Roche Inc., priority 2008, dated 2012):

Target: T1, human CRTH2 (Homo sapiens, UniProt Q9Y5Y4)
T1 sequence (Q9Y5Y4 1-395): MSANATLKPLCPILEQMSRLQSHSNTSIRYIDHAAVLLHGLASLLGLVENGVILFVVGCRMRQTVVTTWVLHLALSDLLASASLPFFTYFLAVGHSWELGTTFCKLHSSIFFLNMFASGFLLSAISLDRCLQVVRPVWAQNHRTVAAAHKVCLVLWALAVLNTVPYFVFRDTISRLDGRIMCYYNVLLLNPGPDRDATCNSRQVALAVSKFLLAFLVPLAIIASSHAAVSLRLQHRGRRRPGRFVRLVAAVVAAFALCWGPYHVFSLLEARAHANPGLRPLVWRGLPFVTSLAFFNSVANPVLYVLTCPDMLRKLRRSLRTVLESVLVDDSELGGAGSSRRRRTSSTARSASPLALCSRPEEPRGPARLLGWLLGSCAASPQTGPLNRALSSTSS
Experiment: Human CRTH2 Receptor Binding Assay (whole cell, [3H]ramatroban)
Set-up: expressed in transfected cells; host or cells: CHO-K1
Conditions: CHO-K1 cells expressing human CRTH2 and G-alpha16; 20 nM [3H]ramatroban; 1 hour, room temperature
Description: A whole cell receptor binding assay using [^3H]ramatroban as the competing radioactive ligand was employed to evaluate the compound binding activity to human CRTH2. The radioactive ligand [^3H]ramatroban was synthesized according to Sugimoto et. al. (Eur. J. Pharmacol. 524, 30-37, 2005) to a specific activity of 42 Ci/mmol.
A cell line stably expressing human CRTH2 was established by transfecting CHO-K1 cells with two mammalian expression vectors that harbored human CRTH2 and G-alpha16 cDNAs, respectively, using FuGene® 6 transfection reagent (from Roche). Stable clones expressing CRTH2 were selected by staining each clone with BM16 (BD Pharmingen™ from BD Biosciences, a division of Becton, Dickinson and Company), which is a rat monoclonal antibody to human CRTH2. The cells were maintained as monolayer cultures in Ham's F-12 medium containing 10% fetal bovine serum, 100 units/mL penicillin, 100 μg/mL streptomycin, 2 mM glutamine, 0.5 mg/mL G418 (geneticin) for CRTH2, and 0.2 mg/mL hygromycin-B (for G-alpha 16). For whole cell receptor binding assay, the monolayer cells were rinsed once with PBS (phosphate buffered saline), dissociated using ethylenediaminetetraacetate (Versene™ EDTA from Lonza Inc.), and suspended in PBS containing 10 mM MgCl2 and 0.06% BSA (bovine serum albumin) at 1.5×10^6 cells/mL.
The binding reactions (0.2 mL) were performed in 96-well plates at room temperature in PBS containing 1.5×10^5 cells, 10 mM MgCl2, 0.06% BSA, 20 nM [^3H]ramatroban, and test compound at various concentrations. After 1 hour of binding reactions, the cells were harvested on GF™/B filter microplates (microtiter plates with embedded glass fiber from Perkin Elmer, Inc.) and washed 5 times with PBS using a Filtermate™ Harvester (a cell harvester that harvests and washes cells from microplates from PerkinElmer, Inc.). The radioactivities bound to the cells were determined using a microplate scintillation counter (TopCount® NXT, from PerkinElmer, Inc.) after adding 50 μL of Microscint™ 20 scintillation fluid (from PerkinElmer, Inc.) to each well of the filter plates. The radioactivity from non-specific binding was determined by replacing compound with 10 μM of 15(R)-15-methyl PGD2 (from Cayman Chemical Company) in the reaction mixtures. The radioactivity bound to the cells in the absence of compound (total binding) was determined by replacing compound with 0.25% of DMSO (dimethyl sulfoxide) in the reaction mixture. Specific binding data were obtained by subtracting the radioactivity of non-specific binding from each binding data.
The IC50 value is defined as the concentration of the tested compound that is required for 50% inhibition of total specific binding. In order to calculate the IC50 value, the percent inhibition data were determined for 7 concentrations for each compound. The percent inhibition for a compound at each concentration was calculated according to the following formula, [1-(specific binding in the presence of compound)/(total specific binding)]×100. The IC50 value was then obtained by fitting the percent inhibition data to a sigmoidal dose-response (4 parameter logistic) model in the XLfit® software Excel add-in program [from ID Business Solutions Ltd., model 205, where F(x)=(A+(B−A)/(1+((C/×)^D)))].

Row | Compound | IC50 [nM]
1 | Cc1c(CC(=O)O)cc2ccc(F)cc2c1Cc1ccc(-n2cccn2)cc1 [Example 10-6, [6-Fluoro-3-methyl-4-(4-pyrazol-1-yl-benzyl)-naphthalen-2-yl]-acetic acid] | 26.7
2 | CS(=O)(=O)c1ccc(Cc2cc(CC(=O)O)cc3ccc(F)cc23)cc1C(F)(F)F [Example 8-6, [6-Fluoro-4-(4-methanesulfonyl-3-trifluoromethyl-benzyl)-naphthalen-2-yl]-acetic acid] | 5.4
3 | CS(=O)(=O)c1ccc(C(=O)c2cc(CC(=O)O)cc3ccccc23)cc1 [Example 2-3, [4-(4-Methanesulfonyl-benzoyl)-naphthalen-2-yl]-acetic acid] | 17
4 | CNS(=O)(=O)c1ccc(C(=O)c2cc(CC(=O)O)cc3ccc(F)cc23)cc1 [Example 2-15, [6-Fluoro-4-(4-methylsulfamoyl-benzoyl)-naphthalen-2-yl]-acetic acid] | 3.3
5 | Cc1ccc(Cc2c(C)c(CC(=O)O)cc3ccc(F)cc23)cc1 [Example 15-1, [6-Fluoro-3-methyl-4-(4-methyl-benzyl)-naphthalen-2-yl]-acetic acid] | 60.1
6 | CS(=O)(=O)c1ccc(C(O)c2cc(CC(=O)O)cc3ccc(F)cc23)c(Cl)c1 (stereo not drawn) [Example 16-1, {4-[(2-Chloro-4-methanesulfonyl-phenyl)-hydroxy-methyl]-6-fluoro-naphthalen-2-yl}-acetic acid] | 16.1
7 | CCS(=O)(=O)c1ccc(Cc2c(C)c(CC(=O)O)cc3ccc(F)cc23)cc1 [Example 13-1, [4-(4-Ethanesulfonyl-benzyl)-6-fluoro-3-methyl-naphthalen-2-yl]-acetic acid] | 3.1
8 | CS(=O)(=O)c1ccc(C(F)(F)c2cc(CC(=O)O)cc3ccc(F)cc23)c(Cl)c1 [Example 17-1, {4-[(2-Chloro-4-methanesulfonyl-phenyl)-difluoro-methyl]-6-fluoro-naphthalen-2-yl}-acetic acid] | 5.7
9 | CCOC(=O)N1CCN(S(=O)(=O)c2ccc(C(=O)c3cc(CC(=O)O)cc4ccc(F)cc34)cc2)CC1 [Example 4-1, 4-[4-(3-Carboxymethyl-7-fluoro-naphthalene-1-carbonyl)-benzenesulfonyl]-piperazine-1-carboxylic acid ethyl ester] | 8.3
10 | CCS(=O)(=O)c1ccc(C(=O)c2cc(CC(=O)O)cc3ccc(F)cc23)cc1 [Example 2-13, [4-(4-Ethanesulfonyl-benzoyl)-6-fluoro-naphthalen-2-yl]-acetic acid] | 3
11 | CS(=O)(=O)c1ccc(C(=O)c2cc(CC(=O)O)cc3ccc(F)cc23)c(F)c1 [Example 2-17, [6-Fluoro-4-(2-fluoro-4-methanesulfonyl-benzoyl)-naphthalen-2-yl]-acetic acid] | 14.5
12 | Cc1c(CC(=O)O)cc2ccc(Cl)cc2c1Cc1ccc(S(C)(=O)=O)cc1 [Example 10-12, [6-Chloro-4-(4-methanesulfonyl-benzyl)-3-methyl-naphthalen-2-yl]-acetic acid] | 10
13 | CCS(=O)(=O)c1ccc(Cc2cc(CC(=O)O)cc3ccc(F)cc23)c(C)c1 [Example 8-7, [4-(4-Ethanesulfonyl-2-methyl-benzyl)-6-fluoro-naphthalen-2-yl]-acetic acid] | 5.4
14 | Cc1c(CC(=O)O)cc2ccc(F)cc2c1C(O)c1ccc(S(C)(=O)=O)cc1 (stereo not drawn) [Example 19-1, {6-Fluoro-4-[hydroxy-(4-methanesulfonyl-phenyl)-methyl]-3-methyl-naphthalen-2-yl}-acetic acid] | 11.8
15 | O=C(O)Cc1cc(C(O)c2ccc(S(=O)(=O)N3CCOCC3)cc2)c2cc(F)ccc2c1 (stereo not drawn) [Example 19-2, (6-Fluoro-4-{hydroxy-[4-(morpholine-4-sulfonyl)-phenyl]-methyl}-naphthalen-2-yl)-acetic acid] | 9.5
16 | O=C(O)Cc1cc(C(=O)c2ccc(S(=O)(=O)N3CCOCC3)cc2)c2cc(F)ccc2c1 [Example 2-16, {6-Fluoro-4-[4-(morpholine-4-sulfonyl)-benzoyl]-naphthalen-2-yl}-acetic acid] | 3.3
17 | CS(=O)(=O)c1ccc(C(O)c2cc(CC(=O)O)cc3ccc(F)cc23)cc1 (stereo not drawn) [Example 16-5, {6-Fluoro-4-[hydroxy-(4-methanesulfonyl-phenyl)-methyl]-naphthalen-2-yl}-acetic acid] | 8
18 | CS(=O)(=O)c1ccc(C(=O)c2cc(CC(=O)O)cc3cc(F)c(F)cc23)cc1 [Example 2-6, [6,7-Difluoro-4-(4-methanesulfonyl-benzoyl)-naphthalen-2-yl]-acetic acid] | 15.5
19 | Cc1cc(S(=O)(=O)N2CCOCC2)ccc1C(=O)c1cc(CC(=O)O)cc2ccc(F)cc12 [Example 2-23, {6-Fluoro-4-[2-methyl-4-(morpholine-4-sulfonyl)-benzoyl]-naphthalen-2-yl}-acetic acid] | 3.7
20 | Cc1c(CC(=O)O)cc2ccc(F)cc2c1Cc1ccc(OC(F)(F)F)cc1 [Example 15-4, [6-Fluoro-3-methyl-4-(4-trifluoromethoxy-benzyl)-naphthalen-2-yl]-acetic acid] | 79.3
21 | CCS(=O)(=O)c1ccc(C(O)c2cc(CC(=O)O)cc3ccc(F)cc23)cc1 (stereo not drawn) [Example 16-7, {4-[(4-Ethanesulfonyl-phenyl)-hydroxy-methyl]-6-fluoro-naphthalen-2-yl}-acetic acid] | 17.4
22 | Cc1c(CC(=O)O)cc2ccc(F)cc2c1Cc1cccc(C#N)c1 [Example 10-9, [4-(3-Cyano-benzyl)-6-fluoro-3-methyl-naphthalen-2-yl]-acetic acid] | 59.9
23 | COC(c1ccc(S(C)(=O)=O)cc1)c1cc(CC(=O)O)cc2ccc(F)cc12 (stereo not drawn) [Example 18-1, {6-Fluoro-4-[(4-methanesulfonyl-phenyl)-methoxy-methyl]-naphthalen-2-yl}-acetic acid] | 40.4
24 | CS(=O)(=O)c1ccc(Cc2cc(CC(=O)O)cc3ccc(F)cc23)cc1 [Example 8-4, [6-Fluoro-4-(4-methanesulfonyl-benzyl)-naphthalen-2-yl]-acetic acid] | 6.1
25 | O=C(O)Cc1cc(C(=O)c2ccc(S(=O)(=O)N3CCCCC3)cc2)c2cc(F)ccc2c1 [Example 2-21, {6-Fluoro-4-[4-(piperidine-1-sulfonyl)-benzoyl]-naphthalen-2-yl}-acetic acid] | 3.8
26 | Cc1c(CC(=O)O)cc2ccc(F)cc2c1Cc1ccccc1S(=O)(=O)c1ccccc1 [Example 14-1] | 5.4
27 | Cc1c(CC(=O)O)cc2ccc(F)cc2c1Cc1ccc(S(=O)(=O)Cc2ccccc2)cc1 [Example 11-3, [6-Fluoro-3-methyl-4-(4-phenylmethanesulfonyl-benzyl)-naphthalen-2-yl]-acetic acid] | 2.7
28 | Cc1cc(S(C)(=O)=O)ccc1C(=O)c1cc(CC(=O)O)cc2ccc(F)cc12 [Example 2-5, [6-Fluoro-4-(4-methanesulfonyl-2-methyl-benzoyl)-naphthalen-2-yl]-acetic acid] | 15.1
29 | Cc1cc(S(C)(=O)=O)ccc1C(O)c1cc(CC(=O)O)cc2ccc(F)cc12 (stereo not drawn) [Example 16-4, {6-Fluoro-4-[hydroxy-(4-methanesulfonyl-2-methyl-phenyl)-methyl]-naphthalen-2-yl}-acetic acid] | 31.9
30 | CCS(=O)(=O)c1ccc(C(=O)c2c(C)c(CC(=O)O)cc3ccc(F)cc23)cc1 [Example 6-3, [4-(4-Ethanesulfonyl-benzoyl)-6-fluoro-3-methyl-naphthalen-2-yl]-acetic acid] | 2.4
